Experimental data as given in publication PMC10808766, “Optimizing drug discovery for snakebite envenoming via a high-throughput phospholipase A2 screening platform” (Frontiers in Pharmacology, 2024).
Counter-ions that a name gives are not always drawn. Like-named read-outs stand apart in the source and are kept apart here.

Columns and labels:
[1] = test system: PLA2 activity of D. russelii venom; assay: Miniaturised 384-well colorimetric sPLA2 assay, D. russelii venom; assay type: biochemical, Daboia russelii; settings: for mean inhibition between screen and rescreen / Percent inhibition (PLA2) Rescreen: 10 µM; for mean inhibition between screen and rescreen: D. russelii venom; for EC50: 2-fold dilutions 10 µM to 5 pM, n = 4; for Percentage of Inhibition: Table S1, strong hits, value used for ligand efficiency metrics; for venom PLA2 activity in presence of compound: interleaved validation plates, 10 µM compound; for venom PLA2 activity in presence of compound / Percent inhibition (PLA2) Original / Percent inhibition (PLA2) Rescreen: 20 ng/well D. russelii venom; for Percent inhibition (PLA2) Original: primary screen, 10 µM drug, single point, relative to varespladib (100%) and DMSO (0%); for Percent inhibition (PLA2) Rescreen: rescreen of library hits, average of rescreen (2 ≤ n ≤ 4)
Protocol: Once hydrolysed, this substrate yields a free thiol group that interacts with 5,5′-dithio-bis-(2-nitrobenzoic acid) (DTNB), which is then converted into 2-nitro-5-thiobenzoic acid, causing a change in colour which is measurable at 405 nm. This conversion is measured kinetically and occurs at a linear rate until the substrate is exhausted, at which point the absorbance plateaus. Appropriate PLA2 concentrations are determined to fit within the linear range of the assay and a bee venom positive control is included with the kit. The assay is designed for 96-well plates and is quite costly at GBP£440/96 tests at the time of writing. We wanted to adapt and miniaturise this methodology for high-throughput screening of PLA2 activity and inhibition in 384-well plates to decrease cost and increase output, without compromising assay robustness.
Prior to conducting drug library screens, it was important to assess whether any drift or edge effects occurred in our setup. […] These consisted of full rows of these compounds in a repeating pattern (e.g., DMSO was in rows A, E, I, M, buffer was in rows B, F, J, N, etc.) on a 384-well plate. The assay was conducted as previously described using 20 ng/well of D. russelii venom across the plate. This was repeated three times on different days. To determine PLA2 activity under each of these conditions, the slope of each reaction was calculated by dividing the difference in absorbance at 405 nm between the first two time points in the linear range (tn–t0) by time (in min) where tn was 2 min 41 s in this case. These values were then inputted into the following equation: A µmol/min×mL=slope×0.045/4.6×0.01 where A represents venom activity, 0.045 is a factor representing the total volume of the assay (45 µL), 4.6 is the extinction coefficient of DTNB in 384-well plates, and 0.01 represents the sample size of 10 µL. This activity is then converted into specific activity by dividing the overall activity to the amount of venom in the reaction in micrograms.
Once in house this library was formatted as 11 × 384-well stock plates containing drugs at a concentration of 1 mM in DMSO. […] Assay-ready plates (ARPs) were made by transferring 0.5 µL from each well of the stock plates onto new 384-well plates, so that the layout of the ARP matched that of the stock plate. Venom was added at 10 µL per well (20 ng venom/well) across the plate, except for column 24 which received 10 µL of assay buffer. These latter wells containing control drugs and assay buffer served as the blank. The plates were incubated for 25 min at 37°C, then left to reach room temperature for 5 min. […] The data were analysed as above by calculating the slopes of all reactions on the plate. The average of the slopes of the blanks was then subtracted from each of these values, and specific activity calculated as described and expressed as µmol/min/mL/µg of venom.
These experiments were conducted and analysed as above, with n = 4 repeats per compound.

[2] = test system: PLA2 activity of D. russelii venom; assay: as above; assay type: biochemical, Daboia russelii; settings: re-sourced drugs, 10 µM, 30 ng venom, varespladib normalised as 100%
[3] = set-up: method as in Cerdá et al., 2003; settings: ref Cerdá et al., 2003; cited from earlier work
[4] = test system: PLA2 activity of N. nigricollis venom; assay: Miniaturised 384-well colorimetric sPLA2 assay, N. nigricollis venom; settings: for % inhibition: N. nigricollis: re-sourced drugs, 10 µM, 5 ng venom, varespladib normalised as 100%
Protocol: (§1) The final concentrations of DTNB and that of the substrate in the assay were 0.44 and 0.88 mM, respectively.
(§2) Then, 10 µL of snake venom at a concentration appropriate for the venom being screened was added to the plates using the VIAFLO384 and the plates were sealed with adhesive plate seals (Greiner BioOne), spun down and incubated for 25 min at 37°C. To prevent the degradation of any potential photolabile compounds, the plates were wrapped in aluminium foil prior to the incubation step. The plates were then taken out of the incubator and left to acclimatise at room temperature for 5 min.
(§3) To determine percentage inhibition relative to the positive and negative controls we applied the following formula: % inhibition= A− µ pos/µ neg− µ pos×100 where A represents specific activity as determined for each sample, and µ (pos) and µ (neg) represent the means of the specific activity in the positive and negative controls, respectively.
(§4) Drugs were plated as before, starting at 10 µM followed by 2-fold dilutions down to 5 pM, with each dilution series plated in quadruplicate. The data were analysed and expressed as described above and the percentage PLA2 inhibition values were used to generate EC50s in Graphpad Prism 9 using a nonlinear regression to fit the dose-response inhibition curve.

[5] = test system: PLA2 activity of C. durissus terrificus venom; assay: Miniaturised 384-well colorimetric sPLA2 assay, C. durissus terrificus venom; settings: for EC50: read-out: EC50 (nM) C. durissus terrificus, 2-fold dilutions 10 µM to 5 pM, n = 4; for % inhibition: C. durissus terrificus: re-sourced drugs, 10 µM, 12.5 ng venom, varespladib normalised as 100%
Protocol: as §1, §2, §3, §4

[6] = test system: PLA2 activity of N. naja venom; assay: Miniaturised 384-well colorimetric sPLA2 assay, N. naja venom; settings: re-sourced drugs, 10 µM, 40 ng venom, varespladib normalised as 100%
Protocol: as §1, §2, §3

[7] = test system: PLA2 activity of C. atrox venom; assay: Miniaturised 384-well colorimetric sPLA2 assay, C. atrox venom; settings: re-sourced drugs, 10 µM, 30 ng venom, varespladib normalised as 100%
Protocol: as §1, §2, §3

[8] = test system: PLA2 activity of B. arietans venom; assay: Miniaturised 384-well colorimetric sPLA2 assay, B. arietans venom; settings: re-sourced drugs, 10 µM, 40 ng venom, varespladib normalised as 100%
Protocol: as §1, §2, §3

[9] = test system: secreted PLA2; set-up: method as in Yu et al., 1997; settings: ref Yu et al., 1997; cited from earlier work
[10] = set-up: method as in Liu et al., 1987; Coutinho et al., 2000; settings: dose of up to 20 mg/day, trialled in the 1970s in China; ref Liu et al., 1987; Coutinho et al., 2000; cited from earlier work
[11] = set-up: method as in Beaudoin, 1985; settings: ref Beaudoin, 1985; cited from earlier work
[12] = test system: non-small cell lung carcinoma cells; set-up: method as in Wang et al., 2018; settings: ref Wang et al., 2018; cited from earlier work
[13] = test system: PLA2 activity of C. durissus terrificus venom; set-up: method as in Cotrim et al., 2011; settings: ref Cotrim et al., 2011; cited from earlier work
[14] = read-out: EC50 (nM) D. russelii

Molecule	mean inhibition between screen and rescreen [1] [%]	% inhibition: D. russelii [2]	EC50 [5] [nM]	% inhibition: N naja [6]	% inhibition: C. atrox [7]	% inhibition: B. arietans [8]	% inhibition: N. nigricollis [4]	% inhibition: C. durissus terrificus [5]	other results
CC(=O)O.Cc1cc2c(C(C)C)c(O)c(O)c(C=O)c2c(O)c1-c1c(C)cc2c(C(C)C)c(O)c(O)c(C=O)c2c1O	89.2								
O=C1O[C@H]2[C@@H]3OC(=O)c4cc(O)c(O)c(O)c4-c4c(O)c(O)c5oc(=O)c6c(c(O)c(O)c7oc(=O)c4c5c76)-c4c(cc(O)c(O)c4O)C(=O)OC[C@H]3OC(O)[C@@H]2OC(=O)c2cc(O)c(O)c(O)c2-c2c1cc(O)c(O)c2O (mixture of isomers) [Punicalagin, punicalagin]	71.7	above 72%	167						EC50 [1, 14]: 559 nM; Percentage of Inhibition [1]: 83.82; toxicity at high doses in rodents [3]: non-toxic; EC50 ([4]; read-out: EC50 (nM) N. nigricollis, 2-fold dilutions 10 µM to 5 pM, n = 4): 270 nM
CC1(C)C2CCC1(C)C(O)C2 (racemic) [DL-Borneol]	95.1	did not re-test as a hit		did not re-test as a hit	did not re-test as a hit	did not re-test as a hit	did not re-test as a hit	did not re-test as a hit	
Cc1cc2c(C(C)C)c(O)c(O)c(C=O)c2c(O)c1-c1c(C)cc2c(C(C)C)c(O)c(O)c(C=O)c2c1O [Gossypol]	76.6		69.1	30%			64%		EC50 [1, 14]: 94.1 nM; inhibition of secreted PLA2 activity [9]: reported inhibition of secreted PLA2 activity; efficacy and tolerability as male contraceptive [10]: efficacious and well tolerated; teratogenicity [11]: non-teratogenic; proliferation in non-small cell lung carcinoma cells [12]: inhibited proliferation
CNC(=O)[C@@H](NC(=O)[C@H](CC(C)C)[C@H](O)C(=O)NO)C(C)(C)C [Marimastat, marimastat]									venom PLA2 activity in presence of compound [1]: 6–8 μmol/min/mL/µg venom
CC(=O)Oc1cc2c(s1)CCN(C(C(=O)C1CC1)c1ccccc1F)C2 (stereo not drawn) [Prasugrel (hydrochloride), prasugrel hydrochloride]	83.9	above 72%							Percentage of Inhibition [1]: 89.92
O=c1c(O)c(-c2ccc(O)c(O)c2)oc2cc(O)cc(O)c12 [Quercetin (dihydrate), quercetin dihydrate]		42%		< 15%	< 15%	< 15%	< 15%	~65%	Percent inhibition (PLA2) Original [1]: > 70%; Percent inhibition (PLA2) Rescreen [1]: failed to inhibit; inhibition of enzymatic PLA2s from C. durissus terrificus venom [13]: previously shown to inhibit
O=C(/C=C/c1ccc(O)c(O)c1/C=C/c1ccc(O)c(O)c1)O[C@H](Cc1ccc(O)c(O)c1)C(=O)O [Salvianolic acid A]									Percent inhibition (PLA2) Rescreen [1]: failed to reproducibly inhibit
CCc1c(C(=O)C(N)=O)c2c(OCC(=O)O)cccc2n1Cc1ccccc1 [Varespladib]		reducing readings to control levels	5.5	reducing readings to control levels	reducing readings to control levels	reducing readings to control levels	reducing readings to control levels	reducing readings to control levels	inhibition of venom PLA2 activity (reaction rate) ([1]; 10 µM varespladib, viper venom, Figure 1B): inhibited venom activity to baseline readings; EC50 ([1]; text value in pM, read-out: EC50 against D. russelii venom): 0.5 nM; venom PLA2 activity in presence of compound [1]: dropped sharply; Percent inhibition (PLA2) Original [1]: > 99%; inhibition of venom PLA2 activity (reaction rate) ([4]; 10 µM varespladib, elapid venom, Figure 1B): inhibited venom activity to baseline readings
Tannic acid	92.1								
